Measurements reported in patent US4678775A, “Method of controlling pests” (priority 1984, dated 1987).
Read-outs that look alike come from different tables or passages of the source.

Tests used:
[1] = system: octopamine-sensitive adenylate cyclase; test: Activation of octopamine-sensitive adenylate cyclase, firefly light organ broken cell preparation; type: biochemical, Photinus pyralis
[2] = system: tobacco hornworms (Manducca sexta); test: In vivo leaf test (antifeeding) on tomato leaves with tobacco hornworm larvae; settings: for rank order antifeeding effectiveness: based on the EC50 of the octopamine agonist, alone or +IBMX; for effect of addition of IBMX on antifeeding / pesticidal activity: with PDE inhibitor IBMX
[3] = molecular target: T1, Beta1 and Beta2-adrenergic-stimulated adenylate cyclase in rat liver (Rattus norvegicus, UniProt P10608); test: Adenylate cyclase stimulation in rat liver; type: biochemical
T1 construct: adenylate cyclase in rat heart and liver; from tissue; host or cells: rat liver

[4] = system: adenylate cyclase in nerve cord of tobacco hornworm; test: Adenylate cyclase activation in broken cell preparations of tobacco hornworm nerve cord; type: biochemical, tobacco hornworm (Manducca sexta); settings: FIG. 1
Procedure: Otherwise, the procedure is identical to that described above.
The tissue is homogenized (usually 15 mg/ml) as above in 6 mM Tris maleate, pH 7.4. […] This is done to cancel out the effects of dopamine and serotonin receptors which are usually present in nerve cord.
As detailed previously, the adenylate cyclase assay, either in the firefly or in other insect pest, is also used to identify a direct stimulator of adenylate cyclase.

[5] = system: cyclic AMP in intact nerve cords of tobacco hornworms; test: Cyclic AMP content of intact tobacco hornworm nerve cords; type: cell-based; settings: 5 minutes
Procedure: After 5 minutes, the intact nerve cord was quickly treated to release all cyclic AMP which was present within the tissue.

[6] = Table 1, ratio greater than 1 = better than (±)-p-octopamine
[7] = Table 4, agonist 10^-1 gm/100 ml, No PDE Inhibitor
[8] = Table 4, agonist 10^-2 gm/100 ml, No PDE Inhibitor
[9] = Table 1, maximal activation as % of that by (±)-p-octopamine, N.A. = No Activity
[10] = Table 2, clonidines, N.A. = no activity
[11] = Table 5, agonist 10^-2 gm/100 ml, IBMX 0.1 g/100 ml
[12] = Table 5, agonist 1 gm/100 ml, IBMX 0.1 g/100 ml
[13] = Table 5, agonist 1 gm/100 ml, No PDE Inhibitor
[14] = Table 5, agonist 10^-1 gm/100 ml, IBMX 0.1 g/100 ml
[15] = Table 5, agonist 10^-1 gm/100 ml, No PDE Inhibitor
[16] = Table 5, agonist 10^-2 gm/100 ml, No PDE Inhibitor

T1 sequence (P10608 whole entry): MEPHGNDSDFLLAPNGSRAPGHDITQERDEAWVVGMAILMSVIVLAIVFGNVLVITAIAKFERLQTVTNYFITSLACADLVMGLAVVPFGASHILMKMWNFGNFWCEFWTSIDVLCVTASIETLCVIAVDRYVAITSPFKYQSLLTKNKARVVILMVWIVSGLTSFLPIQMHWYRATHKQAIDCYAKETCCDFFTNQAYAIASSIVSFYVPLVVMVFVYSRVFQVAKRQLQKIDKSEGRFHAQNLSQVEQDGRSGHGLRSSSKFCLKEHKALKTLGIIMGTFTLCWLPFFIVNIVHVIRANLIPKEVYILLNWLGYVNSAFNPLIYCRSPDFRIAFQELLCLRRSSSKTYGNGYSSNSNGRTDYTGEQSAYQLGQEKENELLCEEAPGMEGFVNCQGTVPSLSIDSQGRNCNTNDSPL

Compound: CN(C)CC(O)c1ccc(O)cc1 (racemic) [(±)-N,Ndimethyloctopamine, reference compound]
- Ka^oct/Ka^(1) ratio (column head is drawing 15) [1, 6]: 0.9

Compound: CNCC(O)c1ccc(O)cc1 (racemic) [(±)-Nmethyloctopamine]
- Ka^oct/Ka^(1) ratio (column head is drawing 15) [1]: 1.8
- % Leaf Remaining ([2]; Table 4, agonist 1 gm/100 ml, IBMX 0.1 g/100 ml): 90%
- % Leaf Remaining ([2]; Table 4, agonist 1 gm/100 ml, No PDE Inhibitor): 30%
- % Leaf Remaining ([2]; Table 4, agonist 10^-1 gm/100 ml, IBMX 0.1 g/100 ml): 55%
- % Leaf Remaining [2, 7]: < 5%
- % Leaf Remaining ([2]; Table 4, agonist 10^-2 gm/100 ml, IBMX 0.1 g/100 ml): 42%
- % Leaf Remaining [2, 8]: < 5%

Compound: NCC(O)c1cccc(O)c1 (racemic) [(±)-m-octopamine, reference compound]
- Vmax (% OCT) [1, 9]: 9 ± 1 % OCT
- Ka^oct/Ka^(1) ratio (column head is drawing 15) [1, 6]: 0.1
- pesticidal activity ([2]; no IBMX): much less pesticidal activity than p-octopamine

Compound: CC(N)C(O)c1ccccc1 (racemic) [(±)-norephedrine, reference compound]
- Ka^oct/Ka^(1) ratio (column head is drawing 15) [1]: < 0.09
- Vmax (% OCT) [1, 9]: 8 ± 1 % OCT

Compound: COc1cc(C(O)CN)ccc1O (racemic) [(±)-normetanephrine, reference compound]
- Ka^oct/Ka^(1) ratio (column head is drawing 15) [1, 6]: 0.07

Compound: NCC(O)c1ccccc1O (racemic) [(±)-o-octopamine, reference compound]
- Ka^oct/Ka^(1) ratio (column head is drawing 15) [1, 6]: 0.05

Compound: CC(N)Cc1ccc(O)cc1 (racemic) [(±)-p-hydroxyamphetamine, reference compound]
- Ka^oct/Ka^(1) ratio (column head is drawing 15) [1]: < 0.05
- Vmax (% OCT) [1, 9]: 8 ± 3 % OCT

Compound: CC(N)C(O)c1ccc(O)cc1 (racemic) [(±)-α-methyloctopamine, reference compound]
- Vmax (% OCT) [1, 9]: 44 ± 2 % OCT
- Ka^oct/Ka^(1) ratio (column head is drawing 15) [1, 6]: 0.05

Compound: CNC(C)C(O)c1ccc(O)cc1 (racemic) [(±)-α-methylsynephrine, reference compound]
- Vmax (% OCT) [1, 9]: 7 ± 2 % OCT
- Ka^oct/Ka^(1) ratio (column head is drawing 15) [1, 6]: < 0.01

Compound: NC[C@@H](O)c1ccc(O)cc1 [(+)-p-octopamine, reference compound]
- Vmax (% OCT) [1, 9]: 81 ± 1 % OCT

Compound: CNC[C@H](O)c1ccc(O)c(O)c1 [(-)-epinephrine, reference compound]
- Ka^oct/Ka^(1) ratio (column head is drawing 15) [1]: 0.20

Compound: CC(C)NC[C@H](O)c1ccc(O)c(O)c1 [(-)-isoproterenol, reference compound]
- stimulation of adenylate cyclase [3]: potently stimulates

Compound: NC[C@H](O)c1ccc(O)c(O)c1 [(-)-nonrepinephrine, reference compound]
- Ka^oct/Ka^(1) ratio (column head is drawing 15) [1, 6]: 0.13

Compound: CNC[C@H](O)c1cccc(O)c1 [(-)-phenylephrine, reference compound]
- Ka^oct/Ka^(1) ratio (column head is drawing 15) [1, 6]: < 0.2

Compound: Cc1cc(Cl)ccc1N=CN [DDCDM, di-demethylchlordimeform, reference compound]
- activation of adenylate cyclase in nerve cord [4]: potent activators
- rank order antifeeding effectiveness [2]: DDCDM+IBMX=NC7+IBMX>Octopamine+IBMX=DDCDM alone>NC7 alone>octopamine alone
- Cyclic AMP Content (Fold-increase over Control) ([5]; +0.1 mM IBMX): 11.1 ± 2.7 Fold-increase over Control
- Cyclic AMP Content (Fold-increase over Control) ([5]; -IBMX): 5.4 ± 3.8 Fold-increase over Control

Compound: Clc1ccc(Cl)c(N=C2NCCN2)c1 [NC 2]
- Ka ratio to octopamine ([1]; Table 2, clonidines): 1.1
- Vmax (% OCT) [1, 10]: 9 % OCT

Compound: Clc1cc(Cl)c(N=C2NCCN2)cc1Cl [NC 3]
- octopamine potency ratio [1]: 3.0
- Ka ratio to octopamine ([1]; Table 2, clonidines): 2.8
- Vmax (% OCT) [1, 10]: 80 % OCT

Compound: Cc1cccc(C)c1N=C1NCCN1 [NC 4]
- Ka ratio to octopamine ([1]; Table 2, clonidines): 0.41
- Vmax (% OCT) [1, 10]: 80 % OCT

Compound: Brc1cccc(Br)c1N=C1NCCN1 [NC 6]
- Ka ratio to octopamine ([1]; Table 2, clonidines): 2.1
- Vmax (% OCT) [1, 10]: 35 % OCT

Compound: Cc1cc(Cl)ccc1N=C1NCCN1 [NC 7, 2-(2-methyl, -4-chlorophenylimino)imidazolidine]
- octopamine potency ratio [1]: 9.8
- Ka ratio to octopamine ([1]; Table 2, clonidines): 9.8
- Vmax (% OCT) [1, 10]: 68 % OCT
- activation of adenylate cyclase in nerve cord [4]: potent activators
- % Leaf Remaining [2, 11]: 85%
- Ki for inhibition of feeding by the larvae ([2]; applied to leaves): 0.01 mg/leaf
- rank order antifeeding effectiveness [2]: DDCDM+IBMX=NC7+IBMX>Octopamine+IBMX=DDCDM alone>NC7 alone>octopamine alone
- behaviour of larvae feeding on treated leaves ([2]; in vivo): tremors, hyperactivity, and leaf walk-off behavior
- effect of addition of IBMX on antifeeding / pesticidal activity [2]: substantial increases in the potency
- Cyclic AMP Content (Fold-increase over Control) ([5]; +0.1 mM IBMX): 13.9 ± 3.0 Fold-increase over Control
- Cyclic AMP Content (Fold-increase over Control) ([5]; -IBMX): 2.2 ± 0.2 Fold-increase over Control

Compound: Clc1ccc(N=C2NCCN2)c(Cl)c1 [NC 8]
- octopamine potency ratio [1]: 3.7
- Ka ratio to octopamine ([1]; Table 2, clonidines): 3.7
- Vmax (% OCT) [1, 10]: 47 % OCT

Compound: Cc1ccc(N=C2NCCN2)c(C)c1 [NC 9]
- octopamine potency ratio [1]: 5.1
- Ka ratio to octopamine ([1]; Table 2, clonidines): 5.1
- Vmax (% OCT) [1, 10]: 78 % OCT

Compound: c1ccc(N=C2NCCN2)cc1 [NC 10]
- % Leaf Remaining [2, 12]: 15%
- % Leaf Remaining [2, 13]: 5%
- % Leaf Remaining [2, 14]: 13%
- % Leaf Remaining [2, 15]: 5%
- % Leaf Remaining [2, 11]: 15%
- % Leaf Remaining [2, 16]: 5%
- % Leaf Remaining ([2]; Table 5, agonist 10^-3 gm/100 ml, IBMX 0.1 g/100 ml): 12%
- % Leaf Remaining ([2]; Table 5, agonist 10^-3 gm/100 ml, No PDE Inhibitor): 5%
- antifeeding activity ([2]; compound itself, in words): lacked antifeeding activity both in the absence or presence of the PDE inhibitor

Compound: Clc1cc(Cl)c(N=C2NCCN2)c(Cl)c1 [NC 11]
- Ka ratio to octopamine ([1]; Table 2, clonidines): 1.9
- Vmax (% OCT) [1, 10]: 60 % OCT

Compound: Brc1ccc(N=C2NCCN2)cc1 [NC 12]
- Ka ratio to octopamine ([1]; Table 2, clonidines): 3.0
- Vmax (% OCT) [1, 10]: 34 % OCT

Compound: Cc1cc(C)c(N=C2NCCN2)c(C)c1 [NC 13]
- octopamine potency ratio [1]: 4.3
- Ka ratio to octopamine ([1]; Table 2, clonidines): 4.3
- Vmax (% OCT) [1, 10]: 112 % OCT

Compound: Nc1cc(Cl)c(N=C2NCCN2)c(Cl)c1 [NC 14]
- Ka ratio to octopamine ([1]; Table 2, clonidines): 0.7
- Vmax (% OCT) [1, 10]: 29 % OCT

Compound: CN(C)c1cc(Cl)c(N=C2NCCN2)c(Cl)c1 [NC 15]
- Ka ratio to octopamine ([1]; Table 2, clonidines): 1.9
- Vmax (% OCT) [1, 10]: 38 % OCT

Compound: CN(CCCl)c1cc(Cl)c(N=C2NCCN2)c(Cl)c1 [NC 16]
- Ka ratio to octopamine ([1]; Table 2, clonidines): 4.8
- Vmax (% OCT) [1, 10]: 6 % OCT

Compound: CNCCc1ccc(O)c(O)c1 [Nmethyldopamine, reference compound]
- Ka^oct/Ka^(1) ratio (column head is drawing 15) [1, 6]: 0.19

Compound: Clc1cccc(Cl)c1N=C1NCCN1 [clonidine, reference compound]
- Ka ratio to octopamine [1]: 0.95
- octopamine potency ratio [1]: 0.9
- Vmax (% OCT) ([1]; light organ homogenate): 35 % OCT
- Vmax, % that of octopamine ([1]; light organ homogenate): 35%
- % Leaf Remaining [2, 12]: 63%
- % Leaf Remaining [2, 13]: 65%
- % Leaf Remaining [2, 14]: 55%
- % Leaf Remaining [2, 15]: 20%
- % Leaf Remaining [2, 11]: 55%
- % Leaf Remaining [2, 16]: 5%
- effect of addition of IBMX on antifeeding / pesticidal activity [2]: substantial increases in the potency

Compound: NCCc1ccc(O)c(O)c1 [dopamine, reference compound]
- Vmax (% OCT) [1, 9]: 4 ± 1 % OCT
- Ka^oct/Ka^(1) ratio (column head is drawing 15) [1, 6]: 0.26

Compound: NCC(O)c1ccc(O)c(Cl)c1 (stereo not shown) [m-chloro-octopamine]
- Ka^oct/Ka^(1) ratio (column head is drawing 15) [1, 6]: 0.28

Compound: Nc1ncnc2c1nc(Sc1ccc(Cl)cc1)n2[C@@H]1O[C@@H]2COP(=O)(O)O[C@H]2[C@H]1O [p-Cl-phenylthio cyclic AMP, 8-p-chlorophenylthio-cyclic AMP, reference compound]
- antifeeding activity ([2]; concentration of 1%, absence of IBMX): showed antifeeding activity
- effect of addition of IBMX on antifeeding / pesticidal activity [2]: increased by addition of IBMX

Compound: NCC(O)c1ccc(F)cc1 (stereo not shown) [p-fluoro-phenylethanolamine]
- % Leaf Remaining [2, 7]: < 5%
- % Leaf Remaining [2, 8]: < 5%
- % Leaf Remaining ([2]; Table 4, agonist 10^-3 gm/100 ml, IBMX 0.1 g/100 ml): 50%
- % Leaf Remaining ([2]; Table 4, agonist 10^-3 gm/100 ml, No PDE Inhibitor): < 5%

Compound: COc1ccc(CCN)cc1 [p-methoxyphenylethylamine, reference compound]
- Vmax (% OCT) [1, 9]: 6 ± 3 % OCT
- Ka^oct/Ka^(1) ratio (column head is drawing 15) [1, 6]: 0.10

Compound: NCCc1ccc(O)cc1 [tyramine, reference compound]
- Ka^oct/Ka^(1) ratio (column head is drawing 15) [1, 6]: 0.15

Compound: NCCc1ccccc1 [β-phenylethylamine, reference compound]
- Ka^oct/Ka^(1) ratio (column head is drawing 15) [1]: 0.03
